Laboratory results published in patent US5621010A, “Urea derivatives and their use as ACAT inhibitors” (Nisshin Flour Milling Co., Ltd., priority 1993, dated 1997).

Assays:
[1] = test system: ACAT (liver microsome fractions of male rabbits); experiment: ACAT inhibitory activity: formation of labelled cholesteryl esters from [1-14C]oleoyl-CoA and endogenous cholesterol; format: biochemical, rabbit; conditions: compound added at 10^-7 M
Protocol: The enzyme preparation, ACAT was prepared from liver microsme fractions of male rabbits according to the method of E. E. Largis et al. (Journal of Lipid Research, Vol. 30, pages 681-690, 1989). The activity was calculated by assaying the amount of the labelled cholesteryl esters formed from [1-^14 C]oleoyl-CoA and endogenous cholesterol according to the method of Kazuichi NATORI et al. (Japan J. Pharmacol., Vol. 42, pages 517-523, 1986).
The result is shown in Table 1, in which percent inhibition of the formation of the labelled cholesteryl esters with a compound added at 10^-7 M is indicated as index for the ACAT inhibitory activity.

[2] = test system: Human LDL; experiment: Antioxidative activity: inhibition of MDA formation from LDL incubated with cupric sulfate; format: biochemical; conditions: compound 10^-5 M; cupric sulfate 5×10^-6 M; 5 hrs; compared with control
Protocol: Human LDL was incubated in the presence of cupric sulfate (5×10^-6 M) and in the presence or absence of a compound (10^-5 M) for 5 hrs. After the incubation, the peroxidation of low-density lipoproteins (LDL) is evaluated by the formation of malondialdehyde (MDA), which is a sort of lipid peroxides according to the method of Simon J. T. Mao et al. (J. Med. Chem., Vol. 34, pages 298-302, 1991). Activity of the compound is shown by percent inhibition of the MDA formation as compared with control.

Structure (SMILES)	ACAT Inhibition [1] [%]	Antioxidant Activity (percent inhibition of the MDA formation) [2] [%]
CN(C(=O)Nc1ccccc1CCc1cc(C(C)(C)C)c(O)c(C(C)(C)C)c1)C1CCCCC1 [Example 43, N-[2-(3,5-di-tert-butyl-4-hydroxyphenethyl)phenyl]-N'-cyclohexyl-N'-methylurea]	99	99
CCCCCCCN(C)C(=O)Nc1ccccc1CCc1cc(C(C)(C)C)c(O)c(C(C)(C)C)c1 [Example 41, N-[2-(3,5-di-tert-butyl-4-hydroxyphenethyl)phenyl]-N'-heptyl-N'-methylurea]	97	99
CC(C)(C)c1cc(CCc2c(F)cccc2NC(=O)NC2CCN(Cc3ccccc3)CC2)cc(C(C)(C)C)c1O [Example 155, N-[2-(3,5-di-tert-butyl-4-hydroxyphenethyl)-3-fluorophenyl]-N'-(1-benzyl-4-piperidyl)urea]	94	–
CC(C)(C)c1cc(CCc2ccccc2NC(=O)NC2CCC(OCc3ccccc3)CC2)cc(C(C)(C)C)c1O (stereo not shown) [Example 57]	89	95
CC(C)=CCCC(C)=CCNC(=O)Nc1ccccc1CCc1cc(C(C)(C)C)c(O)c(C(C)(C)C)c1 [Example 13, N-[2-(3,5-di-tert-butyl-4-hydroxyphenethyl)phenyl]-N'-(3,7-dimethyl-2,6-octadienyl)urea]	90	92
CN(Cc1c2ccccc2cc2ccccc12)C(=O)Nc1ccccc1CCc1cc(C(C)(C)C)c(O)c(C(C)(C)C)c1 [Example 44, N-[2-(3,5-di-tert-butyl-4-hydroxyphenethyl)phenyl]-N'-(9-anthryl)methyl-N'-methylurea]	90	94
CC(C)(C)c1cc(CCc2ccccc2NC(=O)NC2CCCCCCC2)cc(C(C)(C)C)c1O [Example 18, N-[2-(3,5-di-tert-butyl-4-hydroxyphenethyl)phenyl]-N'-cyclooctylurea]	97	97
COc1cccc(CCc2cc(C(C)(C)C)c(O)c(C(C)(C)C)c2)c1NC(=O)NC1CCN(Cc2ccccc2)CC1 [Example 163, N-[2-(3,5-di-tert-butyl-4-hydroxyphenethyl)-6-methoxyphenyl]-N'-(1-benzyl-4-piperidyl)urea]	81	–
CC(C)(C)c1cc(CCc2ccccc2NC(=O)NCC(C)(C)c2ccc(Cl)c(Cl)c2)cc(C(C)(C)C)c1O [Example 77, N-[2-(3,5-di-tert-butyl-4-hydroxyphenethyl)phenyl]-N'-[2-(3,4-dichlorophenyl)-2-methylpropyl]urea]	96	95
CCOC(=O)[C@@H](NC(=O)Nc1ccccc1CCc1cc(C(C)(C)C)c(O)c(C(C)(C)C)c1)c1ccccc1 [Example 69, (S)-N-[2-(3,5-di-tert-butyl-4-hydroxyphenethyl)phenyl]-N'-(α-ethoxycarbonyl)benzylurea]	96	95
CC(C)(C)c1cc(CCc2cc(F)cc(F)c2NC(=O)N2CCC[C@H]3CCCC[C@H]32)cc(C(C)(C)C)c1O (relative stereo) [Example 166]	100	–
CC(C)(C)c1cc(CCc2ccccc2NC(=O)NC(C)(C)c2ccc(Cl)c(Cl)c2)cc(C(C)(C)C)c1O [Example 74, N-[2-(3,5-di-tert-butyl-4-hydroxyphenethyl)phenyl]-N'-[2-(3,4-dichlorophenyl)-2-propyl]urea]	96	95
CC(C)(C)c1cc(CCc2ccccc2NC(=O)NC2CCCC2)cc(C(C)(C)C)c1O [Example 16, N-[2-(3,5-di-tert-butyl-4-hydroxyphenethyl)phenyl]-N'-cyclopentylurea]	93	95
CC(C)(C)c1cc(CCc2ccccc2NC(=O)NCC(c2ccccc2)c2ccccc2)cc(C(C)(C)C)c1O [Example 6, N-[2-(3,5-di-tert-butyl-4-hydroxyphenethyl)phenyl]-N'-(2,2-diphenylethyl)urea]	99	98
CC(C)(C)c1cc(CCc2cc(F)cc(F)c2NC(=O)NC2CCN(Cc3ccccc3)CC2)cc(C(C)(C)C)c1O.Cl [Example 167, N-[2-(3,5-di-tert-butyl-4-hydroxyphenethyl)-4,6-difluorophenyl]-N'-(1-benzyl-4-piperidyl)urea hydrochloride]	100	–
CCCCCCOc1ccc(NC(=O)Nc2ccccc2CCc2cc(C(C)(C)C)c(O)c(C(C)(C)C)c2)cc1 [Example 1, N-[2-(3,5-di-tert-butyl-4-hydroxyphenethyl)phenyl]-N'-(4-hexyloxyphenyl)urea]	83	94

Structure (SMILES)	ACAT Inhibition [1] [%]	Antioxidant Activity (percent inhibition of the MDA formation) [2] [%]
CCCCCCCN(Cc1ccccc1)C(=O)Nc1ccccc1CCc1cc(C(C)(C)C)c(O)c(C(C)(C)C)c1 [Example 40, N-[2-(3,5-di-tert-butyl-4-hydroxyphenethyl)phenyl]-N'-benzyl-N'-heptylurea]	96	98
Cc1cccc(CCc2cc(C(C)(C)C)c(O)c(C(C)(C)C)c2)c1NC(=O)NC1CCN(Cc2ccccc2)CC1 [Example 168, N-[2-(3,5-di-tert-butyl-4-hydroxyphenethyl)-6-methylphenyl]-N'-(1-benzyl-4-piperidyl)urea]	93	–
CC(C)(C)c1cc(CCc2ccccc2NC(=O)NCC2CCCCC2)cc(C(C)(C)C)c1O [Example 90, N-[2-(3,5-di-tert-butyl-4-hydroxyphenethyl)phenyl]-N'-(cyclohexylmethyl)urea]	92	93
CCOCCCNC(=O)Nc1ccccc1CCc1cc(C(C)(C)C)c(O)c(C(C)(C)C)c1 [Example 15, N-[2-(3,5-di-tert-butyl-4-hydroxyphenethyl)phenyl]-N'-(3-ethoxypropyl)urea]	76	99
CC(C)(C)c1cc(CCc2ccccc2NC(=O)NCC2(c3ccc4c(c3)OCO4)CCCC2)cc(C(C)(C)C)c1O [Example 76, N-[2-(3,5-di-tert-butyl-4-hydroxyphenethyl)phenyl]-N'-[[1-(3,4-methylenedioxyphenyl)cyclopentyl]methyl]urea]	98	96
CC(C)(C)c1cc(/C=C/c2ccccc2NC(=O)N2CCC[C@H]3CCCC[C@H]32)cc(C(C)(C)C)c1O (relative stereo) [Example 159]	97	–
CC(C)(C)c1cc(CCc2ccccc2NC(=O)NC(c2ccccc2)c2ccccc2)cc(C(C)(C)C)c1O [Example 29, N-[2-(3,5-di-tert-butyl-4-hydroxyphenethyl)phenyl]-N'-diphenylmethylurea]	99	95
CC(C)(C)c1cc(CCc2ccccc2NC(=O)NC(C2CCCCC2)C2CCCCC2)cc(C(C)(C)C)c1O [Example 50, N-[2-(3,5-di-tert-butyl-4-hydroxyphenethyl)phenyl]-N'-(dicyclohexylmethyl)urea]	88	90
CC(C)(C)c1cc(CCc2ccccc2NC(=O)NCC(C)(C)c2ccc(N3CCCC3)cc2)cc(C(C)(C)C)c1O [Example 141, N-[2-(3,5-di-tert-butyl-4-hydroxyphenethyl)phenyl]-N'-[2-[4-(1-pyrrolidinyl)phenyl]-2-methylpropyl]urea]	86	–
CCCN(C(=O)Nc1ccccc1CCc1cc(C(C)(C)C)c(O)c(C(C)(C)C)c1)C1CCN(Cc2ccccc2)CC1 [Example 146, N-[2-(3,5-di-tert-butyl-4-hydroxyphenethyl)phenyl]-N'-(1-benzyl-4-piperidyl)-N'-propylurea]	85	–
CC1(C)CCCN(C(=O)Nc2ccccc2CCc2cc(C(C)(C)C)c(O)c(C(C)(C)C)c2)C1 [Example 177, 1-[N-[2-(3,5-di-tert-butyl-4-hydroxyphenethyl)phenyl]carbamoyl]-3,3-dimethylpiperidine]	98	–
CC(C)(C)c1cc(CCc2ccccc2NC(=O)N[C@H](C(=O)OCc2ccccc2)c2ccccc2)cc(C(C)(C)C)c1O [Example 173, (S)-N-[2-(3,5-di-tert-butyl-4-hydroxyphenethyl)phenyl]-N'-(α-benzyloxycarbonyl)benzylurea]	95	–
CC(C)(C)c1cc(CCc2ccccc2NC(=O)NCC(C)(C)c2ccc(F)cc2)cc(C(C)(C)C)c1O [Example 140, N-[2-(3,5-di-tert-butyl-4-hydroxyphenethyl)phenyl]-N'-[2-(4-fluorophenyl)-2-methylpropyl]urea]	96	–
CC(C)(C)c1cc(CCc2ccc(Cl)cc2NC(=O)NC2CCN(Cc3ccccc3)CC2)cc(C(C)(C)C)c1O [Example 183, N-[2-(3,5-di-tert-butyl-4-hydroxyphenethyl)-5-chlorophenyl]-N'-(1-benzyl-4-piperidyl)urea]	91	–
CN(C(=O)Nc1c(F)cc(F)cc1CCc1cc(C(C)(C)C)c(O)c(C(C)(C)C)c1)C1CCN(Cc2ccccc2)CC1 [Example 165, N-[2-(3,5-di-tert-butyl-4-hydroxyphenethyl)-4,6-difluorophenyl]-N'-(1-benzyl-4-piperidyl)-N'-methylurea]	99	–
